Data reported in US8182837B2, “Methods and compositions for reducing the risk associated with the administration of opioid analgesics in patients with diagnosed or undiagnosed respiratory illness” (QRxPharma Limited, priority 2003, dated 2012).
Read-outs that look alike come from different tables or passages of the source.

Key:
[1] = P=0.033; of borderline clinical significance
[2] = cited from earlier work; for lower threshold for an initial dosage resulting in production of analgesia: naive human adult

Row | Structure (SMILES) | difference mean, pre-treatment VAS greater than steady-state VAS [1] [cm] | lower threshold for an initial dosage resulting in production of analgesia ([2]; intravenous route) | lower threshold for an initial dosage resulting in production of analgesia ([2]; oral route) [mg every four hours] | analgesic potency relative to morphine (as a function of mass of dose) ([2]; in vivo)
1 | CN1CC[C@]23c4c5ccc(O)c4O[C@H]2[C@@H](O)C=C[C@H]3[C@H]1C5 [Morphine, morphine] | 1.2 | 4-5 mg every four hours | 30 | –
2 | COc1ccc2c3c1O[C@H]1C(=O)CC[C@@]4(O)[C@@H](C2)N(C)CC[C@]314 [oxycodone] | – | – | 10 | about 1.5 times
